Assay [1] concerns hippocampal neurons. Kind of assay: L-cysteine-induced neuronal excitotoxicity. In kind it is cell-based, SD rats. The conditions noted are these: compound 1 μM, 24 h before inducer. As to the method: Experimental and analytical method: before the experiment, a 24-well cell culture plate was pretreated with Poly-D-lysine and placed in a cell incubator at 37° C. and 5% CO2 overnight. SD rats, 18 days pregnant, were ordered, brains of fetal rats (E18-19) were dissected, and hippocampal neurons in the brains were subjected to primary culture in a neuronal medium using a 24-well plate, and then cultured by a serum-free medium. The hippocampal neurons were cultured in a cell incubator at 37° C., 5% CO2 for 19 days (DIV19), then added with a compound to be tested (a final concentration of 1 μM) and a positive control AP5 [(2R)-amino-5-phosphonopentanoic acid(phosphonatopentanoate)] (a final concentration of 100 μM), cultured for 24 h, and then added with L-Cystine (400 μM) and NaHCO3 (10 mM). After 18 h, Hoechst3342 (2.5 μg/ml) was added for cell staining. The cells were placed in the incubator and cultured for 15 min, and photographed using the high-content fluorescence microscope, wherein 6 random non-overlapping fields were photographed for each duplicate well, and the total number of neurons and the number of dead neurons were counted with software Image J. The obtained data was used to determine whether there was a difference between a drug treatment group and a control group.
Compound treatment: 32 small molecule compounds in Embodiment 1 to Embodiment 19A were diluted with DMSO to a 1 mM mother solution; and 1 μL of mother solution was added to 1 ml of culture solution per well in a 24-well plate to a final concentration of 1 μM, wherein a positive control compound was […] of AP5 (100 mM mother solution), and a negative control was 1 μl of DMSO.

The subject of assay [2] is U937 (histiocytic lymphoma cells). Put plainly: Cell proliferation assay, U937. Type of assay: cell-based. The conditions noted are these: Homo sapiens, U-937, 72 h. As to the method: (§1) • Experimental and analytical method: cells were inoculated into a 96-well cell culture plate with a lid at a maximum concentration of 10 μM for a test compound, and diluted in three folds to a series of test concentrations, and cells were incubated at 37° C., 5% CO2 for 72 h. The concentration of DMSO was 0.5%, 100 μl of medium was taken from each well. 100 μl of reagent (Celltitute Glo Assay Kit) was added to each well, and a flat plate was shaken on a plate shaker (protected from light) for 2 min. A culture plate was incubated (protected from light) at room temperature for 30 min. Chemiluminescence values were recorded by a multi-plate plate reader, and the experimental results were as follows:
(§2) U937 (histiocytic lymphoma cells), OCI-LY3 (human diffuse large B-cell lymphoma cells), U2932 (human diffuse large B-cell lymphoma cells), and HT cells (human mixed lymphoma cells) were analyzed in the table for experimental analysis of cell proliferation.

Assay [3] relates to OCI-LY3 (human diffuse large B-cell lymphoma cells). Put plainly: Cell proliferation assay, OCI-LY3. In kind it is cell-based. Conditions: Homo sapiens, OCI-Ly3, 72 h. As to the method: as §1, §2
Assay [4] concerns U2932 (human diffuse large B-cell lymphoma cells). Kind of assay: Cell proliferation assay, U2932. The conditions noted are these: U2932, 72 h. In kind it is cell-based. On the procedure: as §1, §2
For assay [5], the system named is HT cells (human mixed lymphoma cells). Kind of assay: Cell proliferation assay, HT. Type of assay: cell-based. Conditions: Homo sapiens, HT, 72 h. On the procedure: as §1, §2
In assay [6] the test system is Lepr gene mutant (DB) mice. Put plainly: Excessive urination in DB animals. The conditions noted are these: 80 mpk by gavage once every two days, 5 weeks; vs model group. Type of assay: in vivo, mouse. The text has this: • Experimental and analytical method: leptin receptor gene (OB-R) was also known as diabetes gene (db), leptin receptor (Lepr) is closely related to obesity, hypertension, diabetes, lipid metabolism disorders, etc. The courses of these diseases are greatly influenced by the genetic background. Topical insulin can not control the increase in blood glucose and gluconeogenesis levels in the liver. Gene editing technologies and embryo injection technologies were used to construct Lepr gene mutant mice. […] The urine volume of each mouse of this strain was as huge as hundreds of times that of normal mice, so patients with frequent urination could be simulated. The experiment was divided into three groups, i.e., a model group (non-administrated, onset mice with high urine volume), a control group (non-administrated, non-onset normal mice), and an experimental group (administrated Embodiment 1A, 80 mpk, by gavage once every two days), with 2 mice in the control group, and 3 mice in the other two groups. The small molecule used was Embodiment 1A. We observed the urine volume in cages of mice housed in single cages starting from Week 8 and after 5 weeks of continuous drug treatment. […] Experiment 32. Cardiovascular Inflammation Alleviation Effect on APOE Mutant Mice Fed with High-Fat Diets.

Molecules are shown by their SMILES. pIC50: −log10 of the molar value. Where two headings read alike, the source gives them in different places.

One may read the IC50 as the concentration needed to halve the response being measured. What is called pIC50 is the IC50 on a negative log10 scale, so that one unit is a factor of ten. A lower pIC50 goes with a high IC50. For `C[C@H]1CC[C@@]2(OC1)O[C@H]1C[C@H]3[C@@H]4CC[C@@H]5C[C@@H](NC(=O)CCN6CCN(C)CC6)CC[C@]5(C)[C@H]4CC[C@]3(C)[C@H]1[C@@H]2C` [Embodiment 1A], in assay [1], the “protective effects on L-Cystine (400 μM)-induced neuronal excitotoxicity” value is listed as “protective effects”. The IC50 in assay [2] (low sugar, read-out: U937 (IC50, uM) Low sugar) turned out to be 1.8 µM; in assay [2] (normal sugar, read-out: U937 (IC50, uM) Normal sugar) it was 2.13 µM. Also, the figures for the negative logarithm of the IC50 (pIC50) in assay [3], in assay [4] and in assay [5] were 5.72, 6.21 and 5.78, respectively. Moreover, in assay [6], the “urine wetting area in mouse cage” value was “significantly reduced”.

Source of the values: patent US20250213593A1, “Use of Derivatives based on Sarsasapogenin Structure and Pharmaceutical Compositions thereof” (BEIJING PHYTOVENT PHARMACEUTICAL TECHNOLOGY CO., LTD., priority 2022, published 2025).
